# Results from US20060121449A1, “Method for selection of compounds which inhibit clonal cell growth and use thereof” (priority 2002, published 2006).
# Entries after “also recorded” stand apart in the source; their conditions may differ.
# How the values were obtained:
# [1] = tested on: S100T1 cell strain (polyoma virus transformed BHK21/c13); assay: Surface growth (degree of confluence) of S100T1 cells on plastic (Exp 5); type: cell-based, hamster; settings: 2-4 days
# Excerpt: (§1) The degree of confluence of polyoma virus transformed BHK21/c13 cells, the S100T1 cell strain, growing on plastic surface was observed 2-4 days after seeding 3000 or […] cells in appropriate wells of a 96 well tissue culture plate (Nunc).
# [2] = tested on: BHK21/c13 cells; assay: Surface growth (degree of confluence) of BHK21/c13 cells on plastic (Exp 5); type: cell-based, hamster; settings: for Concentration giving about full inhibition of growth on surface: 2-4 days
# Excerpt: as §1
# [3] = tested on: HSV1; assay: HSV1 replication and cytopathogenicity in RK13 cells (Exp 11a, 11b); type: cell-based, Herpes virus type 1; settings: for Coverage of the bottom read after 2 days / Cytopathogenicity read after 2 days: 11b, HSV 2 μl/well; for Coverage of the bottom read after 2 days: 1 g = 100% coverage of the bottom; for Cytopathogenicity read after 2 days: 1d is 100% degeneration
# Description: RK13 cells and HSV1 v:11252 was obtained from Dr. G. Hoddevik, National Institute of Public Health, Oslo, Virus had been stored at −75° C.
# The inoculated virus was not removed before the titration in the last experiment. This time, however, removal of inoculate was performed next day.
# HSV-1 was added undiluted, but 4-OH-OPB was diluted in 50 μl medium. The row seeded with 2000 nl of HSV was titrated and read after 4 days:
# This time the inhibition is 10 times better than before. The difference from 1st time was that the day after infecting cell cultures the medium was changed in order to get rid of remaining active HSV. In addition the original HSV 1 infected and treated cultures were incubated one day more, for 48 hours. The production of virus is then measured in titration of 4-fold dilution steps.
# [4] = tested on: MT4 cells; assay: Clonal growth of MT4 cells in fluid medium, cross dilution of cells and inhibitor (Exp 14); type: cell-based
# Description: Ten fold cell dilutions indicatet in the last row (Table 1) were undertaken in Falcon tissue culture tray using 6×6 wells.
# The 4-OH-OPB dilutions were prepared minutes before being used from 20 mM stock solution in DMSO.
# The 10 μM and 3 μM dilutions were made first and each of them were diluted further in 1/10 steps.
# [5] = tested on: spleen antibody producing cells against sheep red cells; assay: Jerne's test: haemolytic plaques of spleen cells after immunisation with sheep red cells (Exp 10); type: in vivo, mouse; settings: Exp 10 animal 2, low: 2 μl 20 mM s.c. (est. max extracellular 4.6 μM)
# [6] = tested on: HSV1; assay: HSV1 replication and cytopathogenicity in RK13 cells (Exp 11a, 11b); type: cell-based, Herpes virus type 1; settings: for Cytopathogenicity read after 24 hours: 4d = 100% degenerated; for Cell layer read after 24 hours: 4 g = unaffected and covering bottom of the well; for Coverage of the bottom read after 2 days / Cytopathogenicity read after 2 days: 11b, HSV 2 μl/well; for Coverage of the bottom read after 2 days: 1 g = 100% coverage of the bottom; for Cytopathogenicity read after 2 days: 1d is 100% degeneration
# [7] = tested on: Ehrlich ascites cells injected subcutaneously; assay: Subcutaneously transplanted Ehrlich cells in mice, export of metastatic cells (Exp 9); settings: for Export (migration) of subcutaneously injected Ehrlich cells to peritoneum in treated animals / Solid tumours at subcutaneous injection sites: Exp 9; for Export (migration) of subcutaneously injected Ehrlich cells to peritoneum in treated animals: i.p. injections twice a week, untreated control developed ascites only
# Description: This assay involves different numbers of Ehrlich carcinoma cells injected in six subcutaneous locations of mice that were treated by intraperitoneal injections of the compound tested, e.g. 4-OH-OPB (experiment number 9). […] When operating with different cell numbers in the different injection sites, the number of growing tumours indicated which cell number that is necessary for the development of tumours in treated or untreated animals.
# Ehrlich ascites was stored in liquid nitrogen on serum with 10% DMSO. The ampoules were thawed in water of 37° C., diluted in serum, and pelleted by low speed centrifugation after the addition of 2 ml FBS, to remove DMSO.
# The cells were diluted in volumes of 0.6 ml RPM (pH about 6.9) for each animal with no serum added. The 4-OH-OPB was injected intraperitonally twice a week, see Table 2.
# [8] = 11a, inoculate 1 μl/well, 30 μM
# [9] = 11a, inoculate 4 μl/well, 30 μM
# [10] = 11a, inoculate 16 μl/well, 30 μM
# [11] = Exp 9 mouse 1: 10.5 μl 0.2 M i.p. (est. extracell. conc. 281)
# [12] = Exp 9 mouse 1: 10.5 μl 0.2 M i.p. twice a week (est. extracell. conc. 281)
# [13] = Exp 9 mouse 3: 9.6 μl 20 mM i.p. (27.9)
# [14] = Exp 9 mouse 3: 9.6 μl 20 mM i.p. twice a week (27.9)
# [15] = Exp 9 mouse 4: 1.37 μl 20 mM i.p. (2.8)
structure (smiles),measurement,setting,value
"CCCCC1(O)C(=O)N(c2ccccc2)N(c2ccc(O)cc2)C1=O (centres unmarked) [4-OH-OPB, 4-butyl-4-hydroxy-2(p-hydroxyphenyl)-1-phenyl-3,5-pyrazolidinedione]",Concentration giving about full inhibition of growth on surface,[1]; 3000 S100T1 cells/well,1 µM
same,Concentration giving about full inhibition of growth on surface,[1]; 10000 S100T1 cells/well,3 µM
same,"Concentration needed for total inhibition of surface growth, BHK21/c13 compared to S100T1",[2],about 3 times
same,Growth on surface with 100 and 300 nM after 4 days,[2]; 3000 BHK21/c13 cells/well,growth inhibition compared to the control
same,Concentration giving about full inhibition of growth on surface,[2]; 3000 BHK21/c13 cells/well,3 µM
same,Concentration giving about full inhibition of growth on surface,[2]; 10000 BHK21/c13 cells/well with 0.1 i.u./ml insulin,10 µM
same,Coverage of the bottom read after 2 days,[3]; 0.1 μM,1 g
same,Cytopathogenicity read after 2 days,[3]; 0.1 μM,0.28 days
same,Cytopathogenicity read after 2 days,[3]; 0.3 μM,0.28 days
same,Coverage of the bottom read after 2 days,[3]; 10 μM,0.4 g
same,Cytopathogenicity read after 2 days,[3]; 30 μM,0 days
same,Concentration found to inhibit satisfactorily,"[3]; Exp 11b, new medium after 24 hours, titrated after 48 hours",1 µM
same,Concentration needed for arresting colony growth: less in cultures with 5000 cells than with 500000 cells,[4],about 2 logs
same,Spleen weight,[5],148 mg
same,"HSV titration of treated wells, read after 4 days","[6]; 11a, 1 μl HSV, 0.3 μM, dilution 1/1024",((+)?
same,Cytopathogenicity read after 24 hours,"[6]; 11a, inoculate 1 μl/well, 0.1 μM",1.7 days
same,Cytopathogenicity read after 24 hours,"[6]; 11a, inoculate 1 μl/well, 0.3 μM",1.7 days
same,Cytopathogenicity read after 24 hours,"[6]; 11a, inoculate 1 μl/well, 1 μM",1.7 days
same,Cytopathogenicity read after 24 hours,"[6]; 11a, inoculate 1 μl/well, 3 μM",1.7 days
same,Cytopathogenicity read after 24 hours,"[6]; 11a, inoculate 1 μl/well, 10 μM",4 days
same,Cell layer read after 24 hours,[6]; [8],3 to 4 g
same,Cytopathogenicity read after 24 hours,[6]; [8],0 days
same,Cytopathogenicity read after 24 hours,"[6]; 11a, inoculate 4 μl/well, 0.1 μM",2.6 days
same,Cytopathogenicity read after 24 hours,"[6]; 11a, inoculate 4 μl/well, 0.3 μM",2.6 days
same,Cytopathogenicity read after 24 hours,"[6]; 11a, inoculate 4 μl/well, 1 μM",2.6 days
same,Cytopathogenicity read after 24 hours,"[6]; 11a, inoculate 4 μl/well, 3 μM",2.6 days
same,Cytopathogenicity read after 24 hours,"[6]; 11a, inoculate 4 μl/well, 10 μM",4 days
same,Cell layer read after 24 hours,[6]; [9],3 to 4 g
same,Cytopathogenicity read after 24 hours,[6]; [9],0 days
same,Cytopathogenicity read after 24 hours,"[6]; 11a, inoculate 16 μl/well, 0.1 μM",3.4 days
same,Cytopathogenicity read after 24 hours,"[6]; 11a, inoculate 16 μl/well, 0.3 μM",3 to 4 days
same,Cytopathogenicity read after 24 hours,"[6]; 11a, inoculate 16 μl/well, 1 μM",3.4 days
same,Cytopathogenicity read after 24 hours,"[6]; 11a, inoculate 16 μl/well, 3 μM",4 days
same,Cytopathogenicity read after 24 hours,"[6]; 11a, inoculate 16 μl/well, 10 μM",4 days
same,Cell layer read after 24 hours,[6]; [10],3 to 4 g
same,Cytopathogenicity read after 24 hours,[6]; [10],0.5 days
same,Coverage of the bottom read after 2 days,[6]; 0.3 μM,1 g
same,Coverage of the bottom read after 2 days,[6]; 1 μM,1 g
same,Cytopathogenicity read after 2 days,[6]; 1 μM,0.28 days
same,Coverage of the bottom read after 2 days,[6]; 3 μM,1 g
same,Cytopathogenicity read after 2 days,[6]; 3 μM,0.28 days
same,Cytopathogenicity read after 2 days,[6]; 10 μM,1 days
same,Coverage of the bottom read after 2 days,[6]; 30 μM,1 g
same,Concentration that inhibited HSV / necessary for the cure of the infection in cell culture,"[6]; Exp 11a, inoculate not removed before titration",10 µM
same,Concentration that inhibited satisfactorily,[6]; Exp 11b,1000 nM
same,Total titre reduction,[6]; Exp 11b,about 3.5 log
same,Dose giving maximal inhibition of HSV1 titre,"[6]; Exp 11b, titration read after four days",≥ 1 µM
same,Inhibition in Exp 11b compared with Exp 11a,[6]; medium changed the day after infection,10 times
same,Export (migration) of subcutaneously injected Ehrlich cells to peritoneum in treated animals,[7],"did not get ascites with tumour cells, only solid tumours; also recorded: no spread of tumour cells from these subcutaneous injection sites were found in peritoneum; also recorded: effective in stopping migration of tumour cells to peritoneum; also recorded: None of the treated ones got ascites"
same,Export (migration) of subcutaneously injected Ehrlich cells to peritoneum in treated animals,[7]; listed as 4-OH—OPB,Found inhibition on metastatic
same,Solid tumours at subcutaneous injection sites,[7]; the two mice receiving smaller doses,only one tumour
same,Solid tumours at subcutaneous injection sites,"[7]; very high dose mouse, sites with 6250 and 31250 cells",two tumours of the abdominal wall
same,Toxic effects of the very high dose,[7]; Exp 9 mouse 1: 10.5 μl 0.2 M i.p.,"caused adherences in peritoneum; also recorded: liver, spleen and possibly kidneys became affected by its toxicity; also recorded: died of haemorrhagic effusion in thorax"
same,"Day 21, pathology",[7]; [11],Ascites
same,Pathology after 24 days,[7]; [11],Ascites or thoracic fluid did not contain Ehrlich cells
same,Pathology after 24 days,"[7]; Exp 9 mouse 1: 10.5 μl 0.2 M i.p. (est. extracell. conc. 281), listed as 4-OH—OPB",number developed solid tumours; also recorded: Toxic ascites and thoracic
same,"Clinical status, day 14",[7]; [12],No Ehrlich
same,"Day 3-7, clinical status",[7]; [12],no tumour
same,"Weight, day 18","[7]; Exp 9 mouse 1: 10.5 μl 0.2 M i.p. twice a week, initial weight 26.2",37.4 g
same,Animal weight after 24 days,"[7]; Exp 9 mouse 1: 10.5 μl 0.2 M i.p., initial weight 26.2",40.2 g
same,"Day 21, pathology",[7]; [13],Lens sized
same,Pathology after 24 days,[7]; [13],Ascites or organ tumours were not found
same,Pathology after 24 days,"[7]; Exp 9 mouse 3: 9.6 μl 20 mM i.p. (27.9), listed as 4-OH—OPB",Pea sized tumour in left
same,"Clinical status, day 14",[7]; [14],No tumour
same,"Clinical status, day 18",[7]; [14],No tumour
same,Animal weight after 24 days,"[7]; Exp 9 mouse 3: 9.6 μl 20 mM i.p., initial weight 24.1",25 g
same,"Day 21, pathology",[7]; [15],Small tumour
same,Pathology after 24 days,[7]; [15],slightly observable tumour in the abdominal wall
same,Pathology after 24 days,"[7]; Exp 9 mouse 4: 1.37 μl 20 mM i.p. (2.8), listed as 4-OH—OPB","days ago, now lens sized."
same,Animal weight after 24 days,"[7]; Exp 9 mouse 4: 1.37 μl 20 mM i.p., initial weight 34.2",33.5 g. Tumour as discovered 3
same,Estimated concentration in extracellular fluid at which serious toxicity occurs,[7]; extracellular fluid calculated as 2/7 of the animal weight,280 µM
